# Experimental data: ChEMBL document CHEMBL2040800 (J Med Chem, 2012)
# Calls of active or inactive are those of the source. No cut-off for these calls is given here.
# What was measured:
# [1] = AUC (0 to infinity) in Sprague-Dawley rat at 21.7 mg/kg, po; type: ADME, organism-based; design: time infinity, dose 21.7 mg/kg, route oral; settings: plasma
# Plasmodium falciparum [2] = assay: Antimalarial activity against chloroquine-sensitive Plasmodium falciparum NF54 after 24 hrs by hypoxanthine incorporation assay; type: functional, organism-based; settings: NF54, 24 h
# [3] = Cmax in Sprague-Dawley rat at 21.7 mg/kg, po; type: ADME, organism-based; design: dose 21.7 mg/kg, route oral; settings: in vivo
# [4] = Kinetic solubility of the compound in phosphate buffer after 30 mins by nephelometry at pH 6.5; type: physicochemical; settings: read-out: Kinetic_solubility
# [5] = Apparent terminal half life in Sprague-Dawley rat at […], iv; type: ADME, organism-based; design: dose 4.7 mg/kg, route intravenous; settings: in vivo, read-out: betat1/2(app) (converted)
# [6] = AUC (0 to infinity) in Sprague-Dawley rat at […], iv; type: ADME, organism-based; design: time infinity, dose 4.7 mg/kg, route intravenous; settings: plasma
# Plasmodium berghei [7] = assay: Antimalarial activity against Plasmodium berghei ANKA expressing GFP infected in Sprague-Dawley rat assessed as reduction in parasitemia at 30 mg/kg, po administered as single dose measured on day 3 post-infection by flow cytometry; type: functional; design: scale not given: the % may be the effect or the level left
# [8] = Partition coefficient, log D of the compound at pH 7.4 by phase gradient HPLC analysis; type: physicochemical; settings: octanol/water
# [9] = Total plasma clearance in Sprague-Dawley rat at […], iv; type: ADME, organism-based; design: dose 4.7 mg/kg, route intravenous
# [10] = Oral bioavailability in Sprague-Dawley rat at 21.7 mg/kg; type: ADME, organism-based; settings: in vivo
# Plasmodium berghei [11] = assay: Antimalarial activity against Plasmodium berghei ANKA expressing GFP infected in Sprague-Dawley rat assessed as mean survival days of host at 30 mg/kg, po administered as single dose; type: functional
# [12] = Volume of distribution at steady state in Sprague-Dawley rat at […], iv; type: ADME, organism-based; design: dose 4.7 mg/kg, route intravenous; settings: in vivo, read-out: Vdss
# Plasmodium berghei [13] = assay: Antimalarial activity against Plasmodium berghei ANKA expressing GFP infected in Sprague-Dawley rat assessed as mean survival days of host at 10 mg/kg, po administered as single dose; type: functional
# Plasmodium berghei [14] = assay: Antimalarial activity against Plasmodium berghei ANKA expressing GFP infected in Sprague-Dawley rat assessed as reduction in parasitemia at 10 mg/kg, po administered as single dose measured on day 3 post-infection by flow cytometry; type: functional; design: scale not given: the % may be the effect or the level left
# [15] = Apparent terminal half life in Sprague-Dawley rat at 21.7 mg/kg, po; type: ADME, organism-based; design: dose 21.7 mg/kg, route oral; settings: in vivo, read-out: betat1/2(app) (converted)
# Plasmodium falciparum [16] = assay: Antimalarial activity against chloroquine-resistant Plasmodium falciparum K1 after 24 hrs by hypoxanthine incorporation assay; type: functional, organism-based; settings: K1, 24 h
# Rattus norvegicus [17] = assay: Toxicity in Sprague-Dawley rat assessed as impaired coordination at 30 mg/kg, po administered as single dose; type: organism-based; design: dose 30 mg/kg, route oral; settings: in vivo
# [18] = Intrinsic clearance in human liver microsomes at 1 uM up to 60 mins; type: ADME, Microsome; settings: read-out: CLH
# [19] = Plasma protein binding in human by reverse phase gradient HPLC analysis; type: ADME, cell-free; settings: read-out: PPB (converted)
# [20] = Half life in human liver microsomes at 1 uM; type: ADME, Microsome
# Rattus norvegicus [21] = assay: Toxicity in Sprague-Dawley rat assessed as impaired coordination at 50 mg/kg, po administered as 4 doses measured post-third dose; type: organism-based; design: dose 50 mg/kg, route oral; settings: in vivo
# [22] = Tmax in Sprague-Dawley rat at 21.7 mg/kg, po; type: ADME, organism-based; design: dose 21.7 mg/kg, route oral; settings: in vivo
# Plasmodium berghei [23] = assay: Antimalarial activity against Plasmodium berghei ANKA expressing GFP infected in po dosed Sprague-Dawley rat assessed as reduction in parasitemia administered as single dose measured on day 3 post-infection by flow cytometry; type: functional; settings: 72 h
# [24] = AUC (0 to infinity) in Sprague-Dawley rat at 3.2 mg/kg, iv; type: ADME, organism-based; design: time infinity, dose 3.2 mg/kg, route intravenous; settings: plasma
# Plasmodium berghei [25] = assay: Antimalarial activity against Plasmodium berghei ANKA expressing GFP infected in Sprague-Dawley rat assessed as mean survival days of host at 50 mg/kg, po administered as 4 doses; type: functional
# L6 = assay: Cytotoxicity against rat L6 cells after 72 hrs by alamar blue assay; type: cell-based; settings: l6, 72 h
# Cytochrome P450 3A4/3A5 = Cytochrome P450 3A4/3A5 (Homo sapiens, UniProt P08684+P20815); assay: Inhibition of CYP3A4/CYP3A5-mediated testosterone 6beta-hydroxylation in human liver microsomes; type: ADME, Microsome
# [26] = AUC (0 to infinity) in Sprague-Dawley rat at 20.2 mg/kg, po; type: ADME, organism-based; design: time infinity, dose 20.2 mg/kg, route oral; settings: plasma
# Plasmodium berghei [27] = assay: Antimalarial activity against Plasmodium berghei ANKA expressing GFP infected in Sprague-Dawley rat assessed as reduction in parasitemia at 3 mg/kg, po administered as single dose measured on day 3 post-infection by flow cytometry; type: functional; design: scale not given: the % may be the effect or the level left
# Plasmodium berghei [28] = assay: Antimalarial activity against Plasmodium berghei ANKA expressing GFP infected in Sprague-Dawley rat assessed as mean survival days of host at 100 mg/kg, po administered as single dose; type: functional
# [29] = Toxicity in rabbit ventricular wedge assessed as change in QT at 2 uM; type: tissue-based, Oryctolagus cuniculus, Cardiac ventricle
# Salmonella typhimurium = assay: Genotoxicity in Salmonella typhimurium by Ames test; type: toxicity, organism-based; settings: salmonella enterica subsp. enterica serovar typhimurium
# [30] = Oral bioavailability in Sprague-Dawley rat at 20.2 mg/kg; type: ADME, organism-based; settings: in vivo
# [31] = Toxicity in rabbit ventricular wedge assessed as change in […] at 2 uM; type: tissue-based, Oryctolagus cuniculus, Cardiac ventricle
# [32] = Apparent terminal half life in Sprague-Dawley rat at 20.2 mg/kg, po; type: ADME, organism-based; design: dose 20.2 mg/kg, route oral; settings: in vivo, read-out: betat1/2(app) (converted)
# [33] = Apparent terminal half life in Sprague-Dawley rat at 3.2 mg/kg, iv; type: ADME, organism-based; design: dose 3.2 mg/kg, route intravenous; settings: in vivo, read-out: betat1/2(app) (converted)
# Cytochrome P450 2C9 = Cytochrome P450 2C9 (Homo sapiens, UniProt P11712); assay: Inhibition of CYP2C9-mediated tolbutamide methylhydroxylation in human liver microsomes; type: ADME, Microsome
# [34] = Solubility of the compound at 10 uM; type: physicochemical
# Plasmodium berghei [35] = assay: Antimalarial activity against Plasmodium berghei ANKA expressing GFP infected in Sprague-Dawley rat assessed as reduction in parasitemia at 100 mg/kg, po administered as single dose measured on day 3 post-infection by flow cytometry; type: functional; design: scale not given: the % may be the effect or the level left
# [36] = Toxicity in rabbit ventricular wedge assessed as change in TP-e at 2 uM; type: tissue-based, Oryctolagus cuniculus, Cardiac ventricle
# Cytochrome P450 1A2 = biological target: T1, Cytochrome P450 1A2 (Homo sapiens, UniProt P05177); assay: Inhibition of CYP1A2-mediated phenacetin O-deethylation in human liver microsomes; type: ADME, Microsome
# T1 sequence (P05177 whole entry): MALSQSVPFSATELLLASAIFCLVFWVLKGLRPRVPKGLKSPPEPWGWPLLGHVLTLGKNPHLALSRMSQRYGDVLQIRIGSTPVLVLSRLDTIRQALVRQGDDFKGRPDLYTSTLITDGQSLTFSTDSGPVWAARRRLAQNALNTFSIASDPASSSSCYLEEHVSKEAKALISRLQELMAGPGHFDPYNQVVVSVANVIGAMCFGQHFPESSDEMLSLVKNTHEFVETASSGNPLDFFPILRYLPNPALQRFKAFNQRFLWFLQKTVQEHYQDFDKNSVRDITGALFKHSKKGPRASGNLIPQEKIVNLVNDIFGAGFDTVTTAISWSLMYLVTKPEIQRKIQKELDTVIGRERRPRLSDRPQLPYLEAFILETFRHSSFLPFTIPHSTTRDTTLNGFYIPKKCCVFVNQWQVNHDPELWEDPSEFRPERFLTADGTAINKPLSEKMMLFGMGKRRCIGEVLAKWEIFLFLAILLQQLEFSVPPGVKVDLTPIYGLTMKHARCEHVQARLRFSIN
# Plasmodium berghei [37] = assay: Antimalarial activity against Plasmodium berghei ANKA expressing GFP infected in Sprague-Dawley rat assessed as reduction in parasitemia at 50 mg/kg, po administered as 4 doses measured on day 4 post-infection by flow cytometry; type: functional; design: scale not given: the % may be the effect or the level left
# Plasmodium berghei [38] = assay: Antimalarial activity against Plasmodium berghei ANKA expressing GFP infected in Sprague-Dawley rat assessed as total cure from parasite at 100 mg/kg, po administered as single dose measured on day 30 post-infection by flow cytometry; type: functional, organism-based; design: dose 100 mg/kg
# [39] = Volume of distribution at steady state in Sprague-Dawley rat at 3.2 mg/kg, iv; type: ADME, organism-based; design: dose 3.2 mg/kg, route intravenous; settings: plasma, read-out: Vdss
# Cytochrome P450 2D6 = Cytochrome P450 2D6 (Homo sapiens, UniProt P10635); assay: Inhibition of CYP2D6-mediated dextromethorphan O-demethylation in human liver microsomes; type: ADME, Microsome
# [40] = Total plasma clearance in Sprague-Dawley rat at 3.2 mg/kg, iv; type: ADME, organism-based; design: dose 3.2 mg/kg, route intravenous
# Plasmodium berghei [41] = assay: Antimalarial activity against Plasmodium berghei ANKA expressing GFP infected in Sprague-Dawley rat assessed as mean survival days of host at 3 mg/kg, po administered as single dose; type: functional
# Plasmodium berghei [42] = assay: Antimalarial activity against Plasmodium berghei ANKA expressing GFP infected in Sprague-Dawley rat assessed as total cure from parasite at 30 mg/kg, po administered as single dose measured on day 30 post-infection by flow cytometry; type: functional, organism-based; design: dose 30 mg/kg
# Cytochrome P450 2C19 = Cytochrome P450 2C19 (Homo sapiens, UniProt P33261); assay: Inhibition of CYP2C19-mediated (S)-mephenytoin 4'-hydroxylation in human liver microsomes; type: ADME, Microsome
# [43] = Tmax in Sprague-Dawley rat at 20.2 mg/kg, po; type: ADME, organism-based; design: dose 20.2 mg/kg, route oral; settings: in vivo
# Plasmodium berghei [44] = assay: Antimalarial activity against Plasmodium berghei ANKA expressing GFP infected in Sprague-Dawley rat assessed as total cure from parasite at 50 mg/kg, po administered as 4 doses measured on day 30 post-infection by flow cytometry; type: functional, organism-based; design: dose 50 mg/kg
# [45] = Cmax in Sprague-Dawley rat at 20.2 mg/kg, po; type: ADME, organism-based; design: dose 20.2 mg/kg, route oral; settings: in vivo
# Cytochrome P450 2C19, sequence (P33261 whole entry): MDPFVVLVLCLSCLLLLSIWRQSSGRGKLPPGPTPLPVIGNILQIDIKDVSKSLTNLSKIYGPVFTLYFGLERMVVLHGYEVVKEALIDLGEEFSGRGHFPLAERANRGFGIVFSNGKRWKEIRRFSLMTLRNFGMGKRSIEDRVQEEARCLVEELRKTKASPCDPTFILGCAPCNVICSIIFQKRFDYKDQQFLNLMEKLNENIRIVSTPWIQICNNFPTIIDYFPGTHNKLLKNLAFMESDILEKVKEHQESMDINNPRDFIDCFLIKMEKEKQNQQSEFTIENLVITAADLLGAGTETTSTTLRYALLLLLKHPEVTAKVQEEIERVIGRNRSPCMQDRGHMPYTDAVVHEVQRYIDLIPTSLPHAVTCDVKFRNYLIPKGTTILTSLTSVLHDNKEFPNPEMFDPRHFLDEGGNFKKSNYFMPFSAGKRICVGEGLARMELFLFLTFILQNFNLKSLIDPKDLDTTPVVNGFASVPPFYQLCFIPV
# Cytochrome P450 2C9, sequence (P11712 whole entry): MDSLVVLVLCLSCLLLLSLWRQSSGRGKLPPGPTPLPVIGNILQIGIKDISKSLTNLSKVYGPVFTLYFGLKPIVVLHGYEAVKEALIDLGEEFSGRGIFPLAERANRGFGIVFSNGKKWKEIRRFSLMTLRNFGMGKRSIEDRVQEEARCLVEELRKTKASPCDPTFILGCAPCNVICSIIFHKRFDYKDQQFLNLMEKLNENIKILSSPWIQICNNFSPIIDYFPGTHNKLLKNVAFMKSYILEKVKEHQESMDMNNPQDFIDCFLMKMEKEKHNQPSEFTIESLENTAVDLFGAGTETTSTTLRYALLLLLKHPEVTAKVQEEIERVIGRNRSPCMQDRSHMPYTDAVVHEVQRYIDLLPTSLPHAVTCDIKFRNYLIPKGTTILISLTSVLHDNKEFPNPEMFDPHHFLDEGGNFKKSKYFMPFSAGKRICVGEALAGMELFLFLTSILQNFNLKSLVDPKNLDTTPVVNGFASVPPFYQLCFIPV
# Cytochrome P450 2D6, sequence (P10635 whole entry): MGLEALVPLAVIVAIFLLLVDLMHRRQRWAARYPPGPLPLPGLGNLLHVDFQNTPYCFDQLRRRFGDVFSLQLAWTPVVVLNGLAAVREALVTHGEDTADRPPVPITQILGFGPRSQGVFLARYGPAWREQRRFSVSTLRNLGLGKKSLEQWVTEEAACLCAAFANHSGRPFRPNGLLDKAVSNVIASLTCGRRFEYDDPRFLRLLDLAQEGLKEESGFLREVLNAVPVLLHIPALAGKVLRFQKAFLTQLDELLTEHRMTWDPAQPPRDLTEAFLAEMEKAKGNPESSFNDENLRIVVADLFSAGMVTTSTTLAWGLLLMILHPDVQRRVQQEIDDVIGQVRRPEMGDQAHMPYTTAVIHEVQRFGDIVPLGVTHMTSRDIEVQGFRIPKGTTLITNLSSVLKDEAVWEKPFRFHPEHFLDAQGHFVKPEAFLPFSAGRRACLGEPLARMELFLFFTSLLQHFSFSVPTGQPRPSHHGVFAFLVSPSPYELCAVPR
compound,measurement,setting,value
CS(=O)(=O)c1ccc(-c2cnc(N)c(-c3ccc(C(F)(F)F)cc3)c2)cc1,AUC(0-inf),[1],8.27 µM·h
same,IC50,Plasmodium falciparum [2],0.019 µM
same,Cmax,[3],1 µM
same,solubility kinetic at 0.5 h,[4],< 1.6 µg/mL
same,half-life,[5],11.3 h
same,AUC(0-inf),[6],6.98 µM·h
same,Activity,Plasmodium berghei [7],97.3%
same,chromatographic logD,[8],3.4
same,clearance,[9],29 mL/min/kg
same,bioavailability,[10],26%
same,MSD,Plasmodium berghei [11],15 days
same,Vd,[12],8 L/kg
same,MSD,Plasmodium berghei [13],9 days
same,Activity,Plasmodium berghei [14],98%
same,half-life,[15],6 h
same,IC50,Plasmodium falciparum [16],0.02 µM
same,Activity,Rattus norvegicus [17],Non-toxic
same,microsomal CLint at 1 µM,[18],< 7 µL/min/mg
same,fraction unbound,[19],0.038
same,half-life at 1 µM,[20],> 4.17 h
same,Activity,Rattus norvegicus [21],Toxic
same,Tmax,[22],3.25 h
CS(=O)(=O)c1ccc(-c2cnc(N)c(-c3ccc(C(F)(F)F)nc3)c2)cc1 [MMV-048],ED50,Plasmodium berghei [23],0.83 mg/kg
same,ED90,Plasmodium berghei [23],1.7 mg/kg
same,AUC(0-inf),[24],23.4 µM·h
same,MSD,Plasmodium berghei [25],>30 days
same,solubility kinetic at 0.5 h,[4],6.3 µg/mL
same,Activity,L6,251.4 µM
same,INH,Cytochrome P450 3A4/3A5,> 20 µM
same,Activity,Plasmodium berghei [7],99.3%
same,AUC(0-inf),[26],74.2 µM·h
same,Activity,Plasmodium berghei [27],98%
same,MSD,Plasmodium berghei [28],>30 days
same,Activity,[29],Non-toxic
same,Activity,Salmonella typhimurium,Non-toxic
same,chromatographic logD,[8],2.6
same,MSD,Plasmodium berghei [11],>30 days
same,bioavailability,[30],51%
same,Activity,[31],Non-toxic
same,half-life,[32],8.5 h
same,MSD,Plasmodium berghei [13],13 days
same,Activity,Plasmodium berghei [14],98%
same,half-life,[33],7.3 h
same,IC50,Plasmodium falciparum [16],0.025 µM
same,INH,Cytochrome P450 2C9,> 20 µM
same,solubility,[34],Insoluble
same,Activity,Plasmodium berghei [35],99.5%
same,Activity,[36],Non-toxic
same,INH,Cytochrome P450 1A2,> 20 µM
same,Activity,Plasmodium berghei [37],99.7%
same,Activity,Plasmodium berghei [38],Active
same,microsomal CLint at 1 µM,[18],< 1.4 µL/min/mg
same,Vd,[39],2.7 L/kg
same,INH,Cytochrome P450 2D6,> 20 µM
same,clearance,[40],6.5 mL/min/kg
same,MSD,Plasmodium berghei [41],8 days
same,Activity,Plasmodium berghei [42],Active
same,INH,Cytochrome P450 2C19,> 20 µM
same,fraction unbound,[19],0.139
same,half-life at 1 µM,[20],> 8.33 h
same,Tmax,[43],2.5 h
same,Activity,Plasmodium berghei [44],Active
same,Cmax,[45],8 µM
